Experimental data taken from ChEMBL document CHEMBL1130709, “Synthesis and phototoxic property of tetra- and octa-glycoconjugated tetraphenylchlorins” (Bioorg Med Chem Lett, 1998).

Assay: Photosensitizing ability was evaluated by the degradation of DPBF by singlet oxygen in DMSO solution at 27 degree Centigrade

With `CC(=O)OC[C@@H]1O[C@H](Oc2ccc(-c3c4nc(c(-c5ccc(O[C@@H]6O[C@H](COC(C)=O)[C@@H](OC(C)=O)[C@H](OC(C)=O)[C@H]6OC(C)=O)cc5)c5nc(c(-c6ccc(O[C@@H]7O[C@H](COC(C)=O)[C@@H](OC(C)=O)[C@H](OC(C)=O)[C@H]7OC(C)=O)cc6)c6ccc([nH]6)c(-c6ccc(O[C@H]7O[C@@H](COC(C)=O)[C@H](OC(C)=O)[C@@H](OC(C)=O)[C@@H]7OC(C)=O)cc6)c6ccc3[nH]6)CC5)C=C4)cc2)[C@@H](OC(C)=O)[C@H](OC(C)=O)[C@H]1OC(C)=O` as the compound, how does the k obs read?
Its k obs is 0.012 s⁻¹.

With `CC(=O)OC[C@@H]1O[C@H](Oc2cc(O[C@@H]3O[C@H](COC(C)=O)[C@@H](OC(C)=O)[C@H](OC(C)=O)[C@H]3OC(C)=O)cc(-c3c4nc(c(-c5cc(O[C@H]6O[C@@H](COC(C)=O)[C@H](OC(C)=O)[C@@H](OC(C)=O)[C@@H]6OC(C)=O)cc(O[C@H]6O[C@@H](COC(C)=O)[C@H](OC(C)=O)[C@@H](OC(C)=O)[C@@H]6OC(C)=O)c5)c5ccc([nH]5)c(-c5cc(O[C@H]6O[C@@H](COC(C)=O)[C@H](OC(C)=O)[C@@H](OC(C)=O)[C@@H]6OC(C)=O)cc(O[C@@H]6O[C@H](COC(C)=O)[C@@H](OC(C)=O)[C@H](OC(C)=O)[C@H]6OC(C)=O)c5)c5ccc([nH]5)c(-c5cc(O[C@@H]6O[C@H](COC(C)=O)[C@@H](OC(C)=O)[C@H](OC(C)=O)[C@H]6OC(C)=O)cc(O[C@@H]6O[C@H](COC(C)=O)[C@@H](OC(C)=O)[C@H](OC(C)=O)[C@H]6OC(C)=O)c5)c5nc3CC5)C=C4)c2)[C@@H](OC(C)=O)[C@H](OC(C)=O)[C@H]1OC(C)=O` as the compound, how does the k obs read?
Its k obs is 0.011 s⁻¹.

For `OC[C@@H]1O[C@H](Oc2cc(O[C@H]3O[C@@H](CO)[C@H](O)[C@@H](O)[C@@H]3O)cc(-c3c4nc(c(-c5cc(O[C@@H]6O[C@H](CO)[C@@H](O)[C@H](O)[C@H]6O)cc(O[C@@H]6O[C@H](CO)[C@@H](O)[C@H](O)[C@H]6O)c5)c5nc(c(-c6cc(O[C@@H]7O[C@H](CO)[C@@H](O)[C@H](O)[C@H]7O)cc(O[C@@H]7O[C@H](CO)[C@@H](O)[C@H](O)[C@H]7O)c6)c6ccc([nH]6)c(-c6cc(O[C@@H]7O[C@H](CO)[C@@H](O)[C@H](O)[C@H]7O)cc(O[C@@H]7O[C@H](CO)[C@@H](O)[C@H](O)[C@H]7O)c6)c6ccc3[nH]6)CC5)C=C4)c2)[C@@H](O)[C@H](O)[C@H]1O`, which k obs is on record?
The k obs was 0.011 s⁻¹.

Which k obs does the source give for `OC[C@@H]1O[C@H](Oc2ccc(-c3c4nc(c(-c5ccc(O[C@@H]6O[C@H](CO)[C@H](O)[C@H](O)[C@H]6O)cc5)c5nc(c(-c6ccc(O[C@@H]7O[C@H](CO)[C@H](O)[C@H](O)[C@H]7O)cc6)c6ccc([nH]6)c(-c6ccc(O[C@H]7O[C@@H](CO)[C@@H](O)[C@@H](O)[C@@H]7O)cc6)c6ccc3[nH]6)CC5)C=C4)cc2)[C@@H](O)[C@H](O)[C@@H]1O` here?
Its k obs is 0.0062 s⁻¹.

For `OC[C@@H]1O[C@H](Oc2ccc(-c3c4nc(c(-c5ccc(O[C@@H]6O[C@H](CO)[C@@H](O)[C@H](O)[C@H]6O)cc5)c5nc(c(-c6ccc(O[C@@H]7O[C@H](CO)[C@@H](O)[C@H](O)[C@H]7O)cc6)c6ccc([nH]6)c(-c6ccc(O[C@H]7O[C@@H](CO)[C@H](O)[C@@H](O)[C@@H]7O)cc6)c6ccc3[nH]6)CC5)C=C4)cc2)[C@@H](O)[C@H](O)[C@H]1O`, which k obs is on record?
The k obs was 0.0094 s⁻¹.

Which k obs does the source give for `CC(=O)OC[C@@H]1O[C@H](Oc2ccc(-c3c4nc(c(-c5ccc(O[C@@H]6O[C@H](COC(C)=O)[C@H](OC(C)=O)[C@H](OC(C)=O)[C@H]6OC(C)=O)cc5)c5nc(c(-c6ccc(O[C@@H]7O[C@H](COC(C)=O)[C@H](OC(C)=O)[C@H](OC(C)=O)[C@H]7OC(C)=O)cc6)c6ccc([nH]6)c(-c6ccc(O[C@H]7O[C@@H](COC(C)=O)[C@@H](OC(C)=O)[C@@H](OC(C)=O)[C@@H]7OC(C)=O)cc6)c6ccc3[nH]6)CC5)C=C4)cc2)[C@@H](OC(C)=O)[C@H](OC(C)=O)[C@@H]1OC(C)=O` here?
Its k obs is 0.0068 s⁻¹.
